Source: PubChem BioAssay (NCI)
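Each compound was tested at five concentrations against cells in 96-well plates for 48 hours. GI50: concentration for 50% inhibition of growth. TGI is the concentration that stops growth completely.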

Tests used:
Test in all cases: NCI-60 cell line screen, 48 h
HOP-62 NSCLC = system: HOP-62 NSCLC
SK-OV-3 ovarian = system: SK-OV-3 ovarian
DU-145 prostate = system: DU-145 prostate
SF-268 CNS = system: SF-268 CNS
SNB-19 CNS = system: SNB-19 CNS
OVCAR-4 ovarian = system: OVCAR-4 ovarian
MOLT-4 leukemia = system: MOLT-4 leukemia
U251 CNS = system: U251 CNS
IGROV1 ovarian = system: IGROV1 ovarian
SN12C renal = system: SN12C renal

Row | SMILES | GI50 (HOP-62 NSCLC) [µM] | TGI (HOP-62 NSCLC) [µM] | GI50 (SK-OV-3 ovarian) [µM] | TGI (SK-OV-3 ovarian) [µM] | GI50 (DU-145 prostate) [µM] | TGI (DU-145 prostate) [µM] | GI50 (SF-268 CNS) [µM] | TGI (SF-268 CNS) [µM] | GI50 (SNB-19 CNS) [µM] | TGI (SNB-19 CNS) [µM] | GI50 (OVCAR-4 ovarian) [µM] | TGI (OVCAR-4 ovarian) [µM] | GI50 (MOLT-4 leukemia) [µM] | TGI (MOLT-4 leukemia) [µM] | GI50 (U251 CNS) [µM] | TGI (U251 CNS) [µM] | GI50 (IGROV1 ovarian) [µM] | TGI (IGROV1 ovarian) [µM] | GI50 (SN12C renal) [µM] | TGI (SN12C renal) [µM]
1 | CO/N=C(\COc1ccc2c(=O)c3ccccc3oc2c1)c1ccccc1 | 26.8 | 78.3 | 29.7 | 77 | 22.4 | 61.4 | 33.2 | > 100 | 54.5 | > 100 | 84.3 | > 100 | > 100 | > 100 | 26.6 | 79.2 | 39.6 | > 100 | 35.1 | > 100
2 | C[C@H]1[C@H](C)N1CC(O)Cn1ccnc1[N+](=O)[O-] (stereo not given in full) | – | > 100 | – | > 100 | – | > 100 | – | > 100 | – | > 100 | – | > 100 | – | > 100 | – | > 100 | – | > 100 | – | > 100
3 | CN1C(=O)c2ccc3ccccc3c2C1=O | – | > 100 | – | > 100 | – | > 100 | – | > 100 | – | > 100 | – | > 100 | – | > 100 | – | > 100 | – | > 100 | – | > 100
4 | COC(=O)c1c2c(c(C)[n+]([O-])c1C)C(=O)C=C(NCc1ccccc1)C2=O | 1.49 | 3.19 | 2.03 | 4.18 | 1.35 | 2.68 | 1.51 | 4.47 | 1.42 | 2.74 | 0.283 | 1.18 | 0.619 | 2.83 | 1.33 | 3.02 | 0.492 | 1.87 | 0.356 | 1.39
5 | CN(C)c1ccc(Nc2c3ccccc3nc3ccccc23)cc1 | 1.14 | 2.59 | 1.27 | 3.77 | 1.05 | 2.94 | 1.52 | 7.83 | 1.63 | 9.32 | 1.26 | 5.44 | 0.357 | 5.18 | 1.12 | 2.7 | 0.59 | 2.91 | 1.03 | 6.76
6 | CCC(=O)N1C/C(=C/c2ccc(Cl)cc2)C(=O)/C(=C/c2ccc(Cl)cc2)C1 | 0.499 | 1.53 | 1.83 | 3.76 | 1.13 | 2.65 | 1.17 | 3.16 | 1.02 | 2.45 | 0.836 | 2.86 | 0.974 | 5.87 | 0.28 | 0.897 | 0.998 | 2.55 | 0.711 | 2.05
7 | O=[N+]([O-])c1cccc(/C=N/NC2=CS(=O)(=O)C=C2)c1 | – | > 100 | – | > 100 | – | > 100 | – | > 100 | – | > 100 | – | > 100 | – | > 100 | – | > 100 | – | > 100 | – | > 100
8 | CCOC(=O)N1C/C(=C\c2ccccc2)C(=O)/C(=C/c2ccccc2)C1 | – | 24.8 | – | 27.8 | – | > 55.8 | – | 11.9 | – | 20.2 | – | 13.6 | – | 6 | – | 7.43 | – | 11.7 | – | 5.61
9 | COc1ccc2c(c1)nc(NNC(=O)c1cnccn1)c1cccn12 | 0.0961 | 3.33 | 0.281 | 3 | 0.156 | 6.3 | 0.138 | 6.67 | 0.381 | 10.3 | 0.114 | 2.3 | 0.159 | > 85.5 | 0.132 | 2.86 | 0.107 | 2.22 | 0.408 | 3.37
10 | OCCCCC#Cc1ccccc1C#Cc1ccc(O)cc1 | 21.9 | 38.1 | 20 | 40.2 | 16.8 | 33.6 | 16 | 41.7 | 19.2 | 35.9 | 15.8 | 31.9 | 9.96 | 38.9 | 15 | 29.3 | 9.56 | 22.8 | 18.8 | 34.8
11 | COc1ccc(-c2cc(=O)n(-c3nc4ccccc4[nH]3)[nH]2)cc1OC | 9.36 | > 100 | 35.3 | > 100 | 17.5 | > 100 | 10.2 | > 100 | 7.06 | > 100 | 7.9 | > 100 | 0.261 | 0.648 | 4.2 | > 100 | 6.08 | 76.2 | 8.85 | > 100
